From PMC11396667, “Design, Synthesis, and Anticancer and Antibacterial Activities of Quinoline-5-Sulfonamides” (Molecules, 2024)

What was measured:
[1] = tested on: C-32, A549, MDA-MB-231 and HFF-1 cells; test: Wound healing assay; assay type: cell-based, human; details: 3 µM, 72 h after scratching, all cells
Procedure: Photographs of the cell culture (control and culture exposed to compound 3c at a concentration of 3 µM) were taken after scraping the bottom of the vessel with a pipette tip and then after 72 h of incubation (Figure 2). […] In control cultures, the cell-free surface of the vessel (scraped with a pipette tip) becomes overgrown with cells, while in cultures supplemented with medium containing 3 µM of compound 3c, empty spots are visible. In the case of A549 and MDA-MB-231 cells, entire cell-free regions are clearly visible.
The wound healing assay is a standard in vitro technique for examining collective cell migration in two dimensions. The test involves scratching the bottom of a vessel (wells of a culture plate) with a pipette tip and observing over time how quickly cells move to occupy a free surface under specific culture conditions. In the presented work, the observation was carried out after 72 h of culture. At t = 0, a scratch was made, the medium was replaced with fresh one with the addition of the test compound, and then the cultures were incubated for 72 h. The observation was carried out using an OLYMPUS IX 50 microscope (Tokyo, Japan) with a KERN camera (KERN & SOHN GmbH, Balingen, Germany), and an image analysis system with KERN software (BalanceConnection SCD-4.0 Pro) was used to analyze the observed changes.

[2] = tested on: H3, BCL-2, BAX, P21, and P53 genes in C-32, A549, MDA-MB-231, and HFF-1 cells; test: Transcriptional activity by RT-QPCR; assay type: cell-based, human; details: 36 µM in medium, 24 h
Procedure: The study investigated the effect of compound 3c on the transcriptional activity of genes encoding a proliferation marker (histone H3), cell cycle regulators (P53 and P21), and genes encoding proteins involved in the mitochondrial apoptosis pathway (BCL-2 and BAX) in C-32, A549, MDA-MB-231, and HFF-1 cells. Cultures were exposed to 3c at a concentration of 36 µM in medium for 24 h.
The transcriptional activity of the following genes was assessed: H3 (a gene encoding histone H3, a proliferation marker), BCL-2 and BAX (genes encoding BCL-2 and BAX proteins, respectively; both are mitochondrial proteins associated with apoptosis), and P21 and P53 (cell cycle regulators). Activity was assessed by RT-QPCR using the CFX96 Touch Real-Time PCR Detection System (BIO-RAD Hercules, CA, USA) and a SensiFAST^TM SYBR^R No-ROX One-Step Kit (Meridian Bioscience, Memphis, TN, USA). Cultured cells were exposed (for 24 h) to the tested compounds (0.5 µg/mL). RNA was extracted using Quick-RNA™ MiniPrep kit columns (Zymo Research, Irvine, CA, USA). The extracted RNA was assessed qualitatively and quantitatively. The integrity of total RNA was checked by electrophoresis (1.2% agarose gel, EtBr), and the amount and purity of total RNA in the extracts was determined spectrophotometrically (HP8452A apparatus, Hewlett Packard, Waldbronn, Germany).

With `C#CCN(C)S(=O)(=O)c1ccc(O)c2ncccc12` [3c, 8-Hydroxy-N-methyl-N-(prop-2-yn-1-yl)quinoline-5-sulfonamide] the “proliferative activity and migration capacity (wound healing)” value [1] was “reduction in proliferative activity and migration capacity”, the “BCL-2/BAX ratio (ratio of gene copy numbers)” value [2] was “in favor of BAX” and the “transcriptional activity of P21” value [2] was “increase in the transcriptional activity”. The “transcriptional activity of P53” value [2] was “increase in the transcriptional activity” and the “H3 expression (proliferation marker)” value ([2]; all the cultures) was “reduction in H3 expression”.
